target: T1, glucokinase (GK) (Homo sapiens, UniProt P35557); assay: enzymatic glucokinase activity assay (ATP consumption, KinaseGlo luminescence); assay type: biochemical; settings: recombinant GK residues 12-465; 5 μM ATP, 5 mM Glucose; Kact = concentration that displays 50% of the maximal increase in GK activity; read-out: pKact
T1 construct: I.D. No. 1 corresponds to residues 12-465 of glucokinase; made in house; host or cells: E. coli DH10b-T1r
T1 sequence (P35557 with tags, fused parts or gaps isoform P35557-2): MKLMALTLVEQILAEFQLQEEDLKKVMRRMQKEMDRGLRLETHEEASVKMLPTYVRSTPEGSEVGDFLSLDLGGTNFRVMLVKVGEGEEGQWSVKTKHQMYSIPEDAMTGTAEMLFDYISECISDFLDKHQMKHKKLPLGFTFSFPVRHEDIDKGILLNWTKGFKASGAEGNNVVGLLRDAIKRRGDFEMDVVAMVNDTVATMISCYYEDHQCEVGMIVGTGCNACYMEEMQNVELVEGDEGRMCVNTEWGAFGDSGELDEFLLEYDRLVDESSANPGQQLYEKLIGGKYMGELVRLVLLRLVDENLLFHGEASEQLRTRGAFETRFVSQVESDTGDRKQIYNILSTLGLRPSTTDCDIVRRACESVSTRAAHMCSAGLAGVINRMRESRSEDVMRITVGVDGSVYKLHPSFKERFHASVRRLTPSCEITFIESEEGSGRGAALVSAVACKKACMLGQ
Source text: The activity of compounds as glucokinase activators may be assayed in vitro, in vivo or in a cell line. Provided below is an enzymatic glucokinase activity assay.
Purified glucokinase may be obtained as follows. […] SEQ.
The expression of recombinant glucokinase protein may be carried out by transformation and growth of DH10b-T1r E. coli cells incorporating the (pFLAG-CTC) plasmid in LB media. Protein expression can be induced in this system by the addition of IPTG to the culture medium.
Recombinant protein may be isolated from cellular extracts by passage over Sepharose Q Fast Flow resin (Pharmacia). This partially purified GK extract may then be further purified by a second passage over Poros HQ 10 (Applied Biosystems). The purity of GK may be determined on denaturing SDS-PAGE gel. Purified GK may then be concentrated to a final concentration of 20.0 mg/ml. After flash freezing in liquid nitrogen, the proteins can be stored at −78° C. in a buffer containing 25 mM TRIS-HCl pH 7.6, 50 mM NaCl, and 0.5 mM TCEP.
The activation properties of compounds for GK may be determined using a black 384-well-plate format under the following reaction conditions: 25 mM Hepes pH 7.2, 25 mM NaCl, 10 mM MgCl2, 0.01% Brij35, 1 mM DTT, 5 μM ATP, 5 mM Glucose 2% DMSO. The amount of ATP consumed may be determined quantitatively by addition of equal volume of luciferase reagent (luciferase+beetle luciferin—KinaseGlo Luminescent Kinase Assay kit from Promega). The luminescence intensity may be measured by using the Analyst HT from LJL Biosystems.
The reaction mixture may then be incubated at room temperature for 60 min, and quenched and developed by addition of 10 μL of luciferase reagent. Luminescence intensities of the resulting reaction mixtures may be measured after a 10 min incubation at room temperature. The luminescence intensity may be measured by using the Analyst HT from LJL Biosystems.
pKact values may be calculated by non-linear curve fitting of the compound concentrations and luminescence intensities to a standard inhibition/activation equation.

Row | Compound | EC50
1 | CC#CCC(C(=O)Nc1ncc(Cl)s1)n1ccc(S(C)(=O)=O)cc1=O (stereo not shown) [Example 26, N-(5-chlorothiazol-2-yl)-2-(4-(methylsulfonyl)-2-oxopyridin-1(2H)-yl)hex-4-ynamide] | > 15.8 µM
2 | COc1ccc(CC(C(=O)Nc2nccs2)n2c(C)cc(S(=O)(=O)C3CCCC3)cc2=O)cc1 (stereo not shown) [Example 27, 2-(4-(cyclopentylsulfonyl)-6-methyl-2-oxopyridin-1(2H)-yl)-3-(4-methoxyphenyl)-N-(thiazol-2-yl)propanamide] | > 15.8 µM
3 | Cc1cc(S(=O)(=O)C2CCCC2)cc(=O)n1C(Cc1ccc(O)cc1)C(=O)Nc1nccs1 (stereo not shown) [Example 28, 2-(4-(cyclopentylsulfonyl)-6-methyl-2-oxopyridin-1(2H)-yl)-3-(4-hydroxyphenyl)-N-(thiazol-2-yl)propanamide] | > 15.8 µM
4 | O=C(Nc1ncc(Cl)s1)[C@@H](CC1CCOCC1)n1ccc(S(=O)(=O)C2CC2)cc1=O [Example 29, (R)-N-(5-chlorothiazol-2-yl)-2-(4-(cyclopropylsulfonyl)-2-oxopyridin-1(2H)-yl)-3-(tetrahydro-2H-pyran-4-yl)propanamide] | > 15.8 µM
5 | O=C(Nc1ncc(Cl)s1)[C@H](CC1CCOCC1)n1ccc(S(=O)(=O)C2CC2)cc1=O [Example 30, (S)-N-(5-chlorothiazol-2-yl)-2-(4-(cyclopropylsulfonyl)-2-oxopyridin-1(2H)-yl)-3-(tetrahydro-2H-pyran-4-yl)propanamide] | < 1.58 µM
6 | O=C(Nc1ncc(Cl)s1)[C@@H](CC1CCOCC1)n1ccc(S(=O)(=O)C2CCCC2)cc1=O [Example 31, (R)-N-(5-chlorothiazol-2-yl)-2-(4-(cyclopentylsulfonyl)-2-oxopyridin-1(2H)-yl)-3-(tetrahydro-2H-pyran-4-yl)propanamide] | > 15.8 µM
7 | O=C(Nc1ncc(Cl)s1)[C@H](CC1CCOCC1)n1ccc(S(=O)(=O)C2CCCC2)cc1=O [Example 32, (S)-N-(5-chlorothiazol-2-yl)-2-(4-(cyclopentylsulfonyl)-2-oxopyridin-1(2H)-yl)-3-(tetrahydro-2H-pyran-4-yl)propanamide] | < 1.58 µM
8 | O=C(Nc1ncc(F)s1)[C@@H](CC1CCOCC1)n1ccc(S(=O)(=O)C2CCCC2)cc1=O [Example 33, (R)-2-(4-(cyclopentylsulfonyl)-2-oxopyridin-1(2H)-yl)-N-(5-fluorothiazol-2-yl)-3-(tetrahydro-2H-pyran-4-yl)propanamide] | 1.58 to 15.8 µM
9 | O=C(Nc1ncc(F)s1)[C@H](CC1CCOCC1)n1ccc(S(=O)(=O)C2CCCC2)cc1=O [Example 34, (S)-2-(4-(cyclopentylsulfonyl)-2-oxopyridin-1(2H)-yl)-N-(5-fluorothiazol-2-yl)-3-(tetrahydro-2H-pyran-4-yl)propanamide] | < 1.58 µM
10 | O=C(Nc1ncc(F)s1)[C@H](CC1CCOCC1)n1ccc(S(=O)(=O)C2CC2)cc1=O [Example 35, (S)-2-(4-(cyclopropylsulfonyl)-2-oxopyridin-1(2H)-yl)-N-(5-fluorothiazol-2-yl)-3-(tetrahydro-2H-pyran-4-yl)propanamide] | < 1.58 µM
11 | O=C(Nc1ncc(F)s1)[C@@H](CC1CCOCC1)n1ccc(S(=O)(=O)C2CC2)cc1=O [Example 36, (R)-2-(4-(cyclopropylsulfonyl)-2-oxopyridin-1(2H)-yl)-N-(5-fluorothiazol-2-yl)-3-(tetrahydro-2H-pyran-4-yl)propanamide] | > 15.8 µM
12 | Cc1cc(S(=O)(=O)C2CCCC2)cc(=O)n1[C@H](CC1CCOCC1)C(=O)Nc1ncc(Cl)s1 [Example 37, (R)-N-(5-chlorothiazol-2-yl)-2-(4-(cyclopentylsulfonyl)-6-methyl-2-oxopyridin-1(2H)-yl)-3-(tetrahydro-2H-pyran-4-yl)propanamide] | 1.58 to 15.8 µM
13 | Cc1cc(S(=O)(=O)C2CCCC2)cc(=O)n1[C@@H](CC1CCOCC1)C(=O)Nc1ncc(Cl)s1 [Example 38, (S)-N-(5-chlorothiazol-2-yl)-2-(4-(cyclopentylsulfonyl)-6-methyl-2-oxopyridin-1(2H)-yl)-3-(tetrahydro-2H-pyran-4-yl)propanamide] | < 1.58 µM
14 | Cc1cc(S(=O)(=O)C2CCCC2)cc(=O)n1[C@H](CC1CCOCC1)C(=O)Nc1ncc(F)s1 [Example 39, (R)-2-(4-(cyclopentylsulfonyl)-6-methyl-2-oxopyridin-1(2H)-yl)-N-(5-fluorothiazol-2-yl)-3-(tetrahydro-2H-pyran-4-yl)propanamide] | > 15.8 µM
15 | Cc1cc(S(=O)(=O)C2CCCC2)cc(=O)n1[C@@H](CC1CCOCC1)C(=O)Nc1ncc(F)s1 [Example 40, (S)-2-(4-(cyclopentylsulfonyl)-6-methyl-2-oxopyridin-1(2H)-yl)-N-(5-fluorothiazol-2-yl)-3-(tetrahydro-2H-pyran-4-yl)propanamide] | < 1.58 µM
16 | O=C(Nc1ccc(Cl)cn1)[C@@H](CC1CCOCC1)n1ccc(S(=O)(=O)C2CCCC2)cc1=O [Example 41, (R)-N-(5-chloropyridin-2-yl)-2-(4-(cyclopentylsulfonyl)-2-oxopyridin-1(2H)-yl)-3-(tetrahydro-2H-pyran-4-yl)propanamide] | > 15.8 µM
17 | O=C(Nc1ccc(Cl)cn1)[C@H](CC1CCOCC1)n1ccc(S(=O)(=O)C2CCCC2)cc1=O [Example 42, (S)-N-(5-chloropyridin-2-yl)-2-(4-(cyclopentylsulfonyl)-2-oxopyridin-1(2H)-yl)-3-(tetrahydro-2H-pyran-4-yl)propanamide] | < 1.58 µM
18 | Cc1ccc(S(=O)(=O)c2cc(C)n(C(CC(C)(C)C)C(=O)Nc3ncc(F)s3)c(=O)c2)cc1 (stereo not shown) [Example 43, N-(5-fluorothiazol-2-yl)-4,4-dimethyl-2-(6-methyl-2-oxo-4-tosylpyridin-1(2H)-yl)pentanamide] | 1.58 to 15.8 µM
19 | COC(=O)c1cnc(NC(=O)[C@H](CC2CCOCC2)n2ccc(S(=O)(=O)C3CCCC3)cc2=O)s1 [Example 45, (5)-methyl 2-(2-(4-(cyclopentylsulfonyl)-2-oxopyridin-1(2H)-yl)-3-(tetrahydro-2H-pyran-4-yl)propanamido)thiazole-5-carboxylate] | < 1.58 µM
20 | NC(=O)c1ccc(NC(=O)[C@H](CC2CCOCC2)n2ccc(S(=O)(=O)C3CCCC3)cc2=O)nc1 [Example 46, (S)-6-(2-(4-(cyclopentylsulfonyl)-2-oxopyridin-1(2H)-yl)-3-(tetrahydro-2H-pyran-4-yl)propanamido)nicotinamide] | < 1.58 µM
21 | NC(=O)c1ccc(NC(=O)[C@@H](CC2CCOCC2)n2ccc(S(=O)(=O)C3CCCC3)cc2=O)nc1 [Example 47, (R)-6-(2-(4-(cyclopentylsulfonyl)-2-oxopyridin-1(2H)-yl)-3-(tetrahydro-2H-pyran-4-yl)propanamido)nicotinamide] | > 15.8 µM
22 | COc1ccc2nc(NC(=O)[C@@H](CC3CCOCC3)n3ccc(S(=O)(=O)C4CC4)cc3=O)sc2n1 [Example 48, (R)-2-(4-(cyclopropylsulfonyl)-2-oxopyridin-1(2H)-yl)-N-(5-methoxythiazolo[5,4-b]pyridin-2-yl)-3-(tetrahydro-2H-pyran-4-yl)propanamide] | 1.58 to 15.8 µM
23 | COc1ccc2nc(NC(=O)[C@H](CC3CCOCC3)n3ccc(S(=O)(=O)C4CC4)cc3=O)sc2n1 [Example 49, (S)-2-(4-(cyclopropylsulfonyl)-2-oxopyridin-1(2H)-yl)-N-(5-methoxythiazolo[5,4-b]pyridin-2-yl)-3-(tetrahydro-2H-pyran-4-yl)propanamide] | < 1.58 µM
24 | O=C(Nc1ncc(F)s1)C(CC1CCOCC1)n1ccc(S(=O)(=O)c2ccccn2)cc1=O (stereo not shown) [Example 50, N-(5-fluorothiazol-2-yl)-2-(2-oxo-4-(pyridin-2-ylsulfonyl)pyridin-1(2H)-yl)-3-(tetrahydro-2H-pyran-4-yl)propanamide] | < 1.58 µM
25 | O=C(Nc1nc2cccnc2s1)[C@@H](CC1CCOCC1)n1ccc(S(=O)(=O)C2CC2)cc1=O [Example 51, (R)-2-(4-(cyclopropylsulfonyl)-2-oxopyridin-1(2H)-yl)-3-(tetrahydro-2H-pyran-4-yl)-N-(thiazolo[5,4-b]pyridin-2-yl)propanamide] | > 15.8 µM
